Measured values reported in PubChem BioAssay (NCI).
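Growth conditions: 96-well plates. Treatment: test compound, 48 hours, 5 concentrations. Analysis: linear interpolation between bracketing concentrations; unreached endpoints set to highest concentration. At the TGI there is no net growth.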

Columns and labels:
Assay in all cases: NCI anticancer screen, dose series, 48 h
K-562 leukemia = test system: K-562 leukemia
U251 CNS = test system: U251 CNS
SF-268 CNS = test system: SF-268 CNS
NCI-H226 lung = test system: NCI-H226 lung
SNB-19 CNS = test system: SNB-19 CNS
786-0 renal = test system: 786-0 renal
M14 melanoma = test system: M14 melanoma
IGROV1 ovarian = test system: IGROV1 ovarian
NCI/ADR-RES ovarian = test system: NCI/ADR-RES ovarian
MALME-3M melanoma = test system: MALME-3M melanoma
OVCAR-8 ovarian = test system: OVCAR-8 ovarian
HCT-116 colon = test system: HCT-116 colon
UACC-62 melanoma = test system: UACC-62 melanoma
NCI-H460 lung = test system: NCI-H460 lung
CAKI-1 renal = test system: CAKI-1 renal
RXF 393 renal = test system: RXF 393 renal
MCF7 breast = test system: MCF7 breast
DU-145 prostate = test system: DU-145 prostate
UO-31 renal = test system: UO-31 renal
MDA-N = test system: MDA-N
SN12C renal = test system: SN12C renal
SF-295 CNS = test system: SF-295 CNS
OVCAR-5 ovarian = test system: OVCAR-5 ovarian
MOLT-4 leukemia = test system: MOLT-4 leukemia
KM12 colon = test system: KM12 colon
COLO 205 colon = test system: COLO 205 colon
CCRF-CEM leukemia = test system: CCRF-CEM leukemia
MDA-MB-435 = test system: MDA-MB-435
SW-620 colon = test system: SW-620 colon
RPMI-8226 leukemia = test system: RPMI-8226 leukemia
T-47D breast = test system: T-47D breast
OVCAR-4 ovarian = test system: OVCAR-4 ovarian
HOP-92 NSCLC = test system: HOP-92 NSCLC
HOP-62 NSCLC = test system: HOP-62 NSCLC
SF-539 CNS = test system: SF-539 CNS
SK-MEL-2 melanoma = test system: SK-MEL-2 melanoma
HCC-2998 colon = test system: HCC-2998 colon
HCT-15 colon = test system: HCT-15 colon
NCI-H23 lung = test system: NCI-H23 lung
SR leukemia = test system: SR leukemia
ACHN renal = test system: ACHN renal
LOX IMVI melanoma = test system: LOX IMVI melanoma
SK-OV-3 ovarian = test system: SK-OV-3 ovarian
HT29 colon = test system: HT29 colon
SK-MEL-5 melanoma = test system: SK-MEL-5 melanoma
SK-MEL-28 melanoma = test system: SK-MEL-28 melanoma
MDA-MB-231 breast = test system: MDA-MB-231 breast
EKVX NSCLC = test system: EKVX NSCLC
TK-10 renal = test system: TK-10 renal
A549 NSCLC = test system: A549 NSCLC
SNB-75 CNS = test system: SNB-75 CNS
PC-3 prostate = test system: PC-3 prostate
OVCAR-3 ovarian = test system: OVCAR-3 ovarian
HL-60(TB) leukemia = test system: HL-60(TB) leukemia
HS 578T breast = test system: HS 578T breast
UACC-257 melanoma = test system: UACC-257 melanoma
NCI-H522 lung = test system: NCI-H522 lung
A498 renal = test system: A498 renal

Nc1nc2c(ncn2C2C=CC(COS(N)(=O)=O)C2)c(=O)[nH]1 (centres undefined)
TGI (K-562 leukemia): > 100 µM | TGI (U251 CNS): > 100 µM | TGI (SF-268 CNS): > 100 µM | TGI (NCI-H226 lung): > 100 µM | TGI (SNB-19 CNS): > 100 µM | TGI (786-0 renal): > 100 µM | TGI (M14 melanoma): > 100 µM | TGI (IGROV1 ovarian): > 100 µM | TGI (NCI/ADR-RES ovarian): > 100 µM | TGI (MALME-3M melanoma): > 100 µM | TGI (OVCAR-8 ovarian): > 100 µM | TGI (HCT-116 colon): > 100 µM | TGI (UACC-62 melanoma): > 100 µM | TGI (NCI-H460 lung): > 100 µM | TGI (CAKI-1 renal): > 100 µM | TGI (RXF 393 renal): > 100 µM | TGI (MCF7 breast): > 100 µM | TGI (DU-145 prostate): > 100 µM | TGI (UO-31 renal): > 100 µM | TGI (MDA-N): > 100 µM | TGI (SN12C renal): > 100 µM | TGI (SF-295 CNS): > 100 µM | TGI (OVCAR-5 ovarian): > 100 µM | TGI (MOLT-4 leukemia): > 100 µM | TGI (KM12 colon): > 100 µM | TGI (COLO 205 colon): > 100 µM | TGI (CCRF-CEM leukemia): > 100 µM | TGI (MDA-MB-435): > 100 µM | TGI (SW-620 colon): > 100 µM | TGI (RPMI-8226 leukemia): > 100 µM | TGI (T-47D breast): > 100 µM | TGI (OVCAR-4 ovarian): > 100 µM | TGI (HOP-92 NSCLC): > 100 µM | TGI (HOP-62 NSCLC): > 100 µM | TGI (SF-539 CNS): > 100 µM | TGI (SK-MEL-2 melanoma): > 100 µM | TGI (HCC-2998 colon): > 100 µM | TGI (HCT-15 colon): > 100 µM | TGI (NCI-H23 lung): > 100 µM | TGI (SR leukemia): > 100 µM | TGI (ACHN renal): > 100 µM | TGI (LOX IMVI melanoma): > 100 µM | TGI (SK-OV-3 ovarian): > 100 µM | TGI (HT29 colon): > 100 µM | TGI (SK-MEL-5 melanoma): > 100 µM | TGI (SK-MEL-28 melanoma): > 100 µM | TGI (MDA-MB-231 breast): > 100 µM | TGI (EKVX NSCLC): > 100 µM | TGI (TK-10 renal): > 100 µM | TGI (A549 NSCLC): > 100 µM | TGI (SNB-75 CNS): > 100 µM | TGI (PC-3 prostate): > 100 µM | TGI (OVCAR-3 ovarian): > 100 µM | TGI (HL-60(TB) leukemia): > 100 µM | TGI (HS 578T breast): > 100 µM | TGI (UACC-257 melanoma): > 100 µM

COc1ccc2cc(C(=O)NCCCNC(=O)c3ccc4c(OC)c(OC)ccc4c3)ccc2c1OC
TGI (K-562 leukemia): > 100 µM | TGI (U251 CNS): > 100 µM | TGI (SF-268 CNS): > 100 µM | TGI (SNB-19 CNS): > 100 µM | TGI (786-0 renal): > 100 µM | TGI (NCI/ADR-RES ovarian): > 100 µM | TGI (HCT-116 colon): > 100 µM | TGI (UACC-62 melanoma): > 100 µM | TGI (NCI-H460 lung): > 100 µM | TGI (CAKI-1 renal): > 100 µM | TGI (RXF 393 renal): > 100 µM | TGI (MCF7 breast): > 100 µM | TGI (DU-145 prostate): > 100 µM | TGI (UO-31 renal): > 100 µM | TGI (MDA-N): > 100 µM | TGI (SN12C renal): > 100 µM | TGI (SF-295 CNS): > 100 µM | TGI (OVCAR-5 ovarian): > 100 µM | TGI (MOLT-4 leukemia): > 100 µM | TGI (KM12 colon): > 100 µM | TGI (COLO 205 colon): > 100 µM | TGI (CCRF-CEM leukemia): > 100 µM | TGI (NCI-H522 lung): > 100 µM | TGI (MDA-MB-435): > 100 µM | TGI (SW-620 colon): > 100 µM | TGI (RPMI-8226 leukemia): > 100 µM | TGI (T-47D breast): > 100 µM | TGI (OVCAR-4 ovarian): > 100 µM | TGI (HOP-62 NSCLC): > 100 µM | TGI (SK-MEL-2 melanoma): > 100 µM | TGI (HCC-2998 colon): > 100 µM | TGI (HCT-15 colon): > 100 µM | TGI (NCI-H23 lung): > 100 µM | TGI (SR leukemia): > 100 µM | TGI (ACHN renal): > 100 µM | TGI (LOX IMVI melanoma): > 100 µM | TGI (SK-OV-3 ovarian): > 100 µM | TGI (HT29 colon): > 100 µM | TGI (SK-MEL-5 melanoma): > 100 µM | TGI (SK-MEL-28 melanoma): > 100 µM | TGI (A498 renal): > 100 µM | TGI (MDA-MB-231 breast): > 100 µM | TGI (EKVX NSCLC): > 100 µM | TGI (A549 NSCLC): > 100 µM | TGI (PC-3 prostate): > 100 µM | TGI (OVCAR-3 ovarian): > 100 µM | TGI (UACC-257 melanoma): > 100 µM

COc1ccc(C=C2C(=O)NC(=S)NC2=O)c2ccccc12
TGI (K-562 leukemia): > 100 µM | TGI (U251 CNS): 83.3 µM | TGI (SF-268 CNS): > 100 µM | TGI (NCI-H226 lung): 0.7 µM | TGI (786-0 renal): > 100 µM | TGI (M14 melanoma): > 100 µM | TGI (IGROV1 ovarian): > 100 µM | TGI (NCI/ADR-RES ovarian): > 100 µM | TGI (OVCAR-8 ovarian): > 100 µM | TGI (HCT-116 colon): > 100 µM | TGI (NCI-H460 lung): > 100 µM | TGI (CAKI-1 renal): > 100 µM | TGI (RXF 393 renal): 51.1 µM | TGI (MCF7 breast): > 100 µM | TGI (DU-145 prostate): 64.7 µM | TGI (UO-31 renal): > 100 µM | TGI (MDA-N): 40.6 µM | TGI (SF-295 CNS): > 100 µM | TGI (OVCAR-5 ovarian): > 100 µM | TGI (MOLT-4 leukemia): > 100 µM | TGI (KM12 colon): > 100 µM | TGI (CCRF-CEM leukemia): > 100 µM | TGI (NCI-H522 lung): > 100 µM | TGI (MDA-MB-435): > 100 µM | TGI (SW-620 colon): > 100 µM | TGI (RPMI-8226 leukemia): > 100 µM | TGI (T-47D breast): > 100 µM | TGI (OVCAR-4 ovarian): > 100 µM | TGI (HOP-92 NSCLC): > 100 µM | TGI (HOP-62 NSCLC): > 100 µM | TGI (SF-539 CNS): 57.7 µM | TGI (SK-MEL-2 melanoma): 66.5 µM | TGI (HCC-2998 colon): > 100 µM | TGI (HCT-15 colon): > 100 µM | TGI (NCI-H23 lung): > 100 µM | TGI (SR leukemia): 87.1 µM | TGI (ACHN renal): > 100 µM | TGI (LOX IMVI melanoma): > 100 µM | TGI (SK-OV-3 ovarian): > 100 µM | TGI (HT29 colon): 77.3 µM | TGI (SK-MEL-5 melanoma): > 100 µM | TGI (SK-MEL-28 melanoma): > 100 µM | TGI (A498 renal): 0.479 µM | TGI (MDA-MB-231 breast): > 100 µM | TGI (EKVX NSCLC): > 100 µM | TGI (TK-10 renal): 58.2 µM | TGI (PC-3 prostate): 83.3 µM | TGI (OVCAR-3 ovarian): 75.7 µM | TGI (HL-60(TB) leukemia): 52 µM | TGI (HS 578T breast): 60.9 µM | TGI (UACC-257 melanoma): 41.5 µM
